# Publication PMC9303458 (Chemmedchem, 2022)
# Like-named read-outs stand apart in the source and are kept apart here.
# Key:
# [1] = target: T1, fatty acid amide hydrolase (FAAH), rat brain homogenate (Rattus norvegicus, UniProt P97612); type: biochemical; conditions: for FAAH inhibition at 10 μM: highest test concentration; for inhibition at 10 µM: read-out: FAAH inhibition at 10 μM, 10 μM, highest test concentration
# T1 sequence (P97612 1-579): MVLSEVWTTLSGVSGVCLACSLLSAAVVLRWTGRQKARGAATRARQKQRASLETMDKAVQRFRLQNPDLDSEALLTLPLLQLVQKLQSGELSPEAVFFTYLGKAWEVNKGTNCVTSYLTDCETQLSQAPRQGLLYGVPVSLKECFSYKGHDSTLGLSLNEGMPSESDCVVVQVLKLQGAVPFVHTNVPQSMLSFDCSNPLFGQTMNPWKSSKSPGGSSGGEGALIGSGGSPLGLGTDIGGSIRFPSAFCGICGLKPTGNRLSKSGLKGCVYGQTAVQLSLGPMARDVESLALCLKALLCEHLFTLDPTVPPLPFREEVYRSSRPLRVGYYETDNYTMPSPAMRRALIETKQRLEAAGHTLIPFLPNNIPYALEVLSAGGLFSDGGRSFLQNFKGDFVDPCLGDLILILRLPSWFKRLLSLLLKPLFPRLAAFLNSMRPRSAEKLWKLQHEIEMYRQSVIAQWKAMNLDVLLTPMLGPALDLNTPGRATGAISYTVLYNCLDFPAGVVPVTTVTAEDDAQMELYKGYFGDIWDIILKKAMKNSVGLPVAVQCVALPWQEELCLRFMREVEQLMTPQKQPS
# [2] = Chemical stability in aqueous solution; type: physicochemical; conditions: percent of parent remaining after 60 min at 37 °C; mean ± SD, n=3
# [3] = Metabolic stability in porcine liver S9 fraction; type: in vitro ADME; conditions: for Porcine liver S9 fraction Stability: percent of parent remaining after 30 min at 37 °C, mean ± SD, n=3
# [4] = Metabolic stability in porcine blood plasma; type: in vitro ADME; conditions: for Porcine blood plasma Stability: percent of parent remaining after 30 min at 37 °C, mean ± SD, n=3
# [5] = Thermodynamic aqueous solubility; type: physicochemical; conditions: PBS pH 7.4, shaken 20 h, 20 °C; mean ± SD
# [6] = Caco‐2 cell permeability; conditions: human, Caco-2, pH 7.4
# [7] = target: T2, human recombinant MAGL (Homo sapiens, UniProt Q99685); type: biochemical; conditions: for MAGL inhibition at 10 μM: highest test concentration
# T2 sequence (Q99685 1-303): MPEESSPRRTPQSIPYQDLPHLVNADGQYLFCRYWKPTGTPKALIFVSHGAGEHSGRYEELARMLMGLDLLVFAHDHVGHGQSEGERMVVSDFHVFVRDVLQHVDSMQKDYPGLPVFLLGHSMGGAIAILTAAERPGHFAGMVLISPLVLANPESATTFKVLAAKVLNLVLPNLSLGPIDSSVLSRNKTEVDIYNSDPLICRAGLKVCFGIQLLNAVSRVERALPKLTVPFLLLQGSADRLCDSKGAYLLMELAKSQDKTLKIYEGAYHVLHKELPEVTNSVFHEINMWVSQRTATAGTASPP
# [8] = test system: Caco‐2 cell monolayer; conditions: Caco‐2, comparable conditions; cited from earlier work
# [9] = test system: Caco‐2 cell monolayer; test: Caco‐2 cell permeability
# [10] = target: butyrylcholinesterase (BuChE) (Equus caballus, UniProt P81908); test: Inhibition of BuChE, release of benzoic acid from benzoylcholine; type: biochemical, horse
# butyrylcholinesterase (BuChE), sequence (P81908 whole entry): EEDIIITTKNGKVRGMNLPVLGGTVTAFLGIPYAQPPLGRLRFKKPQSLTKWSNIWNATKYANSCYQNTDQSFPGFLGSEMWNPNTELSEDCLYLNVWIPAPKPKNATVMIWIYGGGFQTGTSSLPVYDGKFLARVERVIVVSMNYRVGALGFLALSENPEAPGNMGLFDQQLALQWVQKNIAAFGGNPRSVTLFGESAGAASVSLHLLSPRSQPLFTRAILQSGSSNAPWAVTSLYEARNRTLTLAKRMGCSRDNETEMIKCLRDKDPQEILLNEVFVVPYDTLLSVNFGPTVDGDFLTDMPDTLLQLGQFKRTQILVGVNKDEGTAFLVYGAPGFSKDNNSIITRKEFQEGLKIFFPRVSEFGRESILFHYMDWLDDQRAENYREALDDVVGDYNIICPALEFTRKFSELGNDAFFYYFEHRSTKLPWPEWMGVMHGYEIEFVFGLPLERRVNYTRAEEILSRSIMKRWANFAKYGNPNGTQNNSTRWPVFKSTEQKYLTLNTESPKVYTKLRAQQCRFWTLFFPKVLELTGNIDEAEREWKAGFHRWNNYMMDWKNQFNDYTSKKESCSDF
# [11] = dogs, peroral application; cited from earlier work
# [12] = rats, peroral application; cited from earlier work
compound,measurement,setting,value
"O=C(OC(C(F)(F)F)C(F)(F)F)N1CCC(CCn2cnc3ccccc32)CC1 [Compound 101, 1,1,1,3,3,3‐Hexafluoropropan‐2‐yl 4‐[2‐(benzimidazol‐1‐yl)ethyl]piperidine‐1‐carboxylate]",IC50,[1],1 µM
same,PBS‐buffer pH 7.4 Stability,[2],> 95%
same,Porcine liver S9 fraction Stability,[3],82±7%
same,Porcine blood plasma Stability,[4],93±5%
same,Aqueous solubility pH 7.4,[5],6.1±0.5 μg/mL
same,"Papp A→B at 2 h, 10 µM",[6],126 ± 10 nm/s
O=C(OC(C(F)(F)F)C(F)(F)F)N1CCC(CCn2ccc3cccc(F)c32)CC1 [Compound 75],IC50,[1],1.2 µM
"O=C(OC(C(F)(F)F)C(F)(F)F)N1CCC(CCn2ccc3ccc(F)cc32)CC1 [Compound 24, 1,1,1,3,3,3‐Hexafluoropropan‐2‐yl 4‐[2‐(6‐fluoroindol‐1‐yl)ethyl]piperidine‐1‐carboxylate]",IC50,[1],1 µM
same,PBS‐buffer pH 7.4 Stability,[2],93±1%
same,Porcine liver S9 fraction Stability,[3],68±7%
same,Porcine blood plasma Stability,[4],86±7%
O=C(OC(C(F)(F)F)C(F)(F)F)N(CCCCCn1ccc2ccc(F)cc21)C1CC1 [Compound 42],FAAH inhibition at 10 μM,[1],inactive
same,MAGL inhibition at 10 μM,[7],inactive
O=C(OC(C(F)(F)F)C(F)(F)F)N1CCC(CCn2ccc3cc(Cl)ccc32)CC1 [Compound 78],IC50,[1],7.5 µM
O=C(OC(C(F)(F)F)C(F)(F)F)N1CCC(CCn2nnc3ccccc32)CC1 [Compound 104],IC50,[1],> 10 µM
COc1ccc2c(ccn2CC2CCN(C(=O)OC(C(F)(F)F)C(F)(F)F)CC2)c1 [Compound 60],IC50,[1],> 10 µM
same,inhibition at 10 µM,[1],~25%
O=C(OC(C(F)(F)F)C(F)(F)F)N1CCC(CCCCn2ccc3ccc(F)cc32)CC1 [Compound 32],IC50,[1],2.8 µM
COc1ccc2c(ccn2CCC2CCN(C(=O)OC(C(F)(F)F)C(F)(F)F)CC2)c1 [Compound 84],IC50,[1],8.3 µM
"COc1ccc2c(c1)c(CC(=O)O)c(C)n2C(=O)c1ccc(Cl)cc1 [indomethacin, reference compound]","Permeability coefficient, literature value",[8],204 nm/s
same,Recovery of test compound at the end of the Caco‐2 experiment,[9]; sum of apical and basolateral compartments after 2 h,quantitative
O=C(OC(C(F)(F)F)C(F)(F)F)N1CCC(CCCn2ccc3ccc(F)cc32)CC1 [Compound 28],IC50,[1],6.3 µM
"O=C(OC(C(F)(F)F)C(F)(F)F)N1CCN(CCn2ccc3ccc(F)cc32)CC1 [Compound 92, 1,1,1,3,3,3‐Hexafluoropropan‐2‐yl 4‐[2‐(6‐fluoroindol‐1‐yl)ethyl]piperazine‐1‐carboxylate]",IC50,[1],2.6 µM
same,Decrease of activity towards FAAH relative to lead structure 24 (factor),[1]; ratio of IC50 values,~2.5
same,Decrease of activity towards MAGL relative to lead structure 24 (factor),[7]; ratio of IC50 values,about 1.5
O=C(OC(C(F)(F)F)C(F)(F)F)N1CCC(CCn2ccc3ccccc32)CC1 [Compound 66],IC50,[1],2.1 µM
N#Cc1ccc2c(ccn2CC2CCN(C(=O)OC(C(F)(F)F)C(F)(F)F)CC2)c1 [Compound 63],IC50,[1],> 10 µM
same,inhibition at 10 µM,[1],~25%
"O=C(NCCCCCCn1ccc2ccc(F)cc21)OC(C(F)(F)F)C(F)(F)F [Compound 13, 1,1,1,3,3,3‐Hexafluoropropan‐2‐yl N‐[6‐(6‐fluoroindol‐1‐yl)hexyl]carbamate]",IC50,[1],0.77 µM
same,PBS‐buffer pH 7.4 Stability,[2],95±3%
same,Porcine liver S9 fraction Stability,[3],69±5%
same,Porcine blood plasma Stability,[4],79±8%
same,IC50,[10],1.8 µM
"NC(=O)c1cccc(-c2cccc(OC(=O)NC3CCCCC3)c2)c1 [URB597, reference compound]",PBS‐buffer pH 7.4 Stability,[2],> 95%
same,Porcine liver S9 fraction Stability,[3],80±4%
Cc1ccc2c(ccn2CC2CCN(C(=O)OC(C(F)(F)F)C(F)(F)F)CC2)c1 [Compound 57],IC50,[1],> 10 µM
same,inhibition at 10 µM,[1],~25%
"CN(CCCCCn1ccc2ccc(F)cc21)C(=O)OC(C(F)(F)F)C(F)(F)F [Compound 35, 1,1,1,3,3,3‐Hexafluoropropan‐2‐yl N‐methyl‐N‐[5‐(6‐fluoroindol‐1‐yl)pentyl]carbamate]",inhibition at 10 µM,[1],~30%
same,inhibition at 10 µM,[7]; read-out: MAGL inhibition at 10 μM,~30%
N#Cc1ccc2c(ccn2CCC2CCN(C(=O)OC(C(F)(F)F)C(F)(F)F)CC2)c1 [Compound 87],IC50,[1],> 10 µM
O=C(OC(C(F)(F)F)C(F)(F)F)N1CCC(Cn2ccc3c(F)cccc32)CC1 [Compound 48],FAAH inhibition at 10 μM,[1],no inhibitory activity
"CCCc1nc(C(C)(C)O)c(C(=O)OCc2oc(=O)oc2C)n1Cc1ccc(-c2ccccc2-c2nnn[nH]2)cc1 [olmesartan medoxomil, reference compound]",Hydrolysis in porcine blood plasma,[4]; under the conditions of the stability assay,almost quantitatively hydrolyzed
Cc1ccc2c(ccn2CCC2CCN(C(=O)OC(C(F)(F)F)C(F)(F)F)CC2)c1 [Compound 81],IC50,[1],> 10 µM
O=C(OC(C(F)(F)F)C(F)(F)F)N1CCC(Cn2ccc3ccccc32)CC1 [Compound 45],FAAH inhibition at 10 μM,[1],no inhibitory activity
"O=C(OC(C(F)(F)F)C(F)(F)F)N1CCC(Cn2ccc3ccc(F)cc32)CC1 [Compound 20, 1,1,1,3,3,3‐Hexafluoropropan‐2‐yl 4‐[(6‐fluoroindol‐1‐yl)methyl]piperidine‐1‐carboxylate]",FAAH inhibition at 10 μM,[1],no inhibitory activity
same,PBS‐buffer pH 7.4 Stability,[2],> 95%
same,Porcine liver S9 fraction Stability,[3],75±3%
same,Porcine blood plasma Stability,[4],82±6%
O=C(NCCCCCCCn1ccc2ccc(F)cc21)OC(C(F)(F)F)C(F)(F)F [Compound 15],IC50,[1],1 µM
"O=C(OC(C(F)(F)F)C(F)(F)F)N1CCN(Cc2ccc(C(F)(F)F)cc2N2CCCC2)CC1 [ABX‐1431, reference compound]",PBS‐buffer pH 7.4 Stability,[2],90±5%
same,Porcine liver S9 fraction Stability,[3],81±3%
same,Porcine blood plasma Stability,[4],95±2%
same,Aqueous solubility pH 7.4,[5],very low solubility
same,Bioavailability,[11],more than 60%
same,Bioavailability,[12],more than 60%
same,Permeability coefficient pH 7.4,"[9]; Caco‐2, 10 μM apical, 2 h, 37 °C, mean ± SD, n=3, n.d.: no permeation detectable",could not be detected
O=C(OC(C(F)(F)F)C(F)(F)F)N1CCC(Cn2ccc3cccc(F)c32)CC1 [Compound 54],FAAH inhibition at 10 μM,[1],no inhibitory activity
"O=C(NCCCCCn1ccc2ccc(F)cc21)Oc1ccccc1 [Compound 6, phenyl N‐[5‐(6‐fluoroindol‐1‐yl)pentyl]carbamate]",MAGL inhibition at 10 μM,[7],no inhibition
O=C(OC(C(F)(F)F)C(F)(F)F)N1CCC(CCn2ccc3cc(F)ccc32)CC1 [Compound 72],IC50,[1],2.8 µM
O=C(OC(C(F)(F)F)C(F)(F)F)N1CCC(CCn2ccc3c(F)cccc32)CC1 [Compound 69],IC50,[1],2.5 µM
CC(C)N(CCCCCn1ccc2ccc(F)cc21)C(=O)OC(C(F)(F)F)C(F)(F)F [Compound 40],FAAH inhibition at 10 μM,[1],inactive
same,MAGL inhibition at 10 μM,[7],inactive
"CCN(CCCCCn1ccc2ccc(F)cc21)C(=O)OC(C(F)(F)F)C(F)(F)F [Compound 38, 1,1,1,3,3,3‐Hexafluoropropan‐2‐yl N‐ethyl‐N‐[5‐(6‐fluoroindol‐1‐yl)pentyl]carbamate]",FAAH inhibition at 10 μM,[1],inactive
same,MAGL inhibition at 10 μM,[7],inactive
"O=C(OC(C(F)(F)F)C(F)(F)F)N1CCC(Cn2ccc3cccnc32)CC1 [Compound 125, 1,1,1,3,3,3‐Hexafluoropropan‐2‐yl 4‐[(7‐azaindol‐1‐yl)methyl]piperidine‐1‐carboxylate]",FAAH inhibition at 10 μM,[1],ineffective
same,PBS‐buffer pH 7.4 Stability,[2],92±7%
same,Porcine liver S9 fraction Stability,[3],75±8%
same,Porcine blood plasma Stability,[4],79±6%
same,"Papp A→B at 2 h, 10 µM",[6],100 nm/s
"O=C(NCCCCCn1ccc2ccc(F)cc21)OC(C(F)(F)F)C(F)(F)F [Compound 11, 1,1,1,3,3,3‐Hexafluoropropan‐2‐yl N‐[5‐(6‐fluoroindol‐1‐yl)pentyl]carbamate]",IC50,[1],0.74 µM
same,PBS‐buffer pH 7.4 Stability,[2],95±4%
same,Porcine liver S9 fraction Stability,[3],72±5%
same,Porcine blood plasma Stability,[4],86±9%
same,IC50,[10],3.5 µM
O=C(OC(C(F)(F)F)C(F)(F)F)N1CCC(Cn2cnc3ccccc32)CC1 [Compound 122],FAAH inhibition at 10 μM,[1],ineffective
"CCOC(=O)C1=C[C@@H](OC(CC)CC)[C@H](NC(C)=O)[C@@H](N)C1 [oseltamivir, reference compound]",Degradation in porcine liver homogenate,[3]; percent degraded under the conditions of the stability assay,approximately 90%
